From patent publication US20260285875A1, “INHIBITORS OF PARG” (858 Therapeutics, Inc., priority 2023, published 2026)

The molecules below were run against T1, cellular PARG (Homo sapiens, UniProt Q86W56) (assay: Nuclear PAR accumulation assay (immunofluorescence high-content imaging, MMS-treated HeLa cells)). Conditions: 1 hour compound then MMS 50 μg/mL for an additional hour.
T1 construct: endogenous in cells; host or cells: HeLa
Format: cell-based
How it was run: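 HeLa cells pretreated with compound for 1 h at 37° C, then given 50 μg/mL MMS for another hour. After methanol fixation, PAR was immunostained with DAPI nuclear counterstain; per-nucleus intensity and percent PAR-positive cells were imaged at 20× (≥1,000 cells/well). IC50 from four-parameter logistic fit.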

T1 sequence (Q86W56 whole entry): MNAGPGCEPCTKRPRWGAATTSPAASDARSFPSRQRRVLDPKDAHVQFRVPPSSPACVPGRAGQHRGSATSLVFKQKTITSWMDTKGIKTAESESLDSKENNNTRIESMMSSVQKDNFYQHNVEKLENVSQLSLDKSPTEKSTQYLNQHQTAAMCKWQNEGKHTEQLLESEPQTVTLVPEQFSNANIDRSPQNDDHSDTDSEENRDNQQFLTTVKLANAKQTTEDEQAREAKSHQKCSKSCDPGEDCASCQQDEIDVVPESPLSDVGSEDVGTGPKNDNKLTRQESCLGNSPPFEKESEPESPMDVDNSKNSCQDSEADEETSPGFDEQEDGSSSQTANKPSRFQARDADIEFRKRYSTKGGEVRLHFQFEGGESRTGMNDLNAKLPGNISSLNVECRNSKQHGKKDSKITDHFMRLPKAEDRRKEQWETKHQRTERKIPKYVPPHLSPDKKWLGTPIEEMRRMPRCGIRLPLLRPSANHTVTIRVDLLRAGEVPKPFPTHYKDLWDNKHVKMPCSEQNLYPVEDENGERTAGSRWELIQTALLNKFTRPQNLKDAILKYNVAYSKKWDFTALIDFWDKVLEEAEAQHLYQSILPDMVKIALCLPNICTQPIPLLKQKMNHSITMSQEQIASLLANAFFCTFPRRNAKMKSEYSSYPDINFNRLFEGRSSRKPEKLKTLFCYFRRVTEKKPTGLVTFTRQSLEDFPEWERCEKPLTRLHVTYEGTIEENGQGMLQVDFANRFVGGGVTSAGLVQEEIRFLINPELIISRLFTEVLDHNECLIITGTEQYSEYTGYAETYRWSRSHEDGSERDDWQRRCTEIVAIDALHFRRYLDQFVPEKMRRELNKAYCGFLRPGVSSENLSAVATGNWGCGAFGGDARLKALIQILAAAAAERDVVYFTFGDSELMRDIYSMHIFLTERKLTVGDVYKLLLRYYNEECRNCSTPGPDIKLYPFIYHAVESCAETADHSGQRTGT

Row | SMILES | IC50 [µM]
1 | Cn1cc(CN2C(=O)c3cc(S(=O)(=O)NC4(C)CC4)ccc3N3C2=NC[C@H]3C#Cc2cccnc2)cn1 [Example 117, (R)-4-((1-methyl-1H-pyrazol-4-yl)methyl)-N-(1-methylcyclopropyl)-5-oxo-1-(pyridin-3-ylethynyl)-1,2,4,5-tetrahydroimidazo[1,2-a]quinazoline-7-sulfonamide] | < 0.1
2 | Cn1cc(CN2C(=O)c3cc(S(=O)(=O)NC4(C)CC4)ccc3N3C2=NC[C@H]3C2CCC2)cn1 [Example 118, (R)-1-cyclobutyl-4-((1-methyl-1H-pyrazol-4-yl)methyl)-N-(1-methylcyclopropyl)-5-oxo-1,2,4,5-tetrahydroimidazo[1,2-a]quinazoline-7-sulfonamide] | < 0.1
3 | Cc1nc([C@@H]2CN=C3N(Cc4cnn(C)c4)C(=O)c4cc(S(=O)(=O)NC5(C)CC5)ccc4N32)co1 [Example 119, (S)-4-((1-methyl-1H-pyrazol-4-yl)methyl)-N-(1-methylcyclopropyl)-1-(2-methyloxazol-4-yl)-5-oxo-1,2,4,5-tetrahydroimidazo[1,2-a]quinazoline-7-sulfonamide] | 0.1 to 1
4 | CN1C(=O)c2cc(S(=O)(=O)NC3(C)CC3)ccc2N2C1=NC[C@H]2C#Cc1cn(C)nc1F [Example 120, (R)-1-((3-fluoro-1-methyl-1H-pyrazol-4-yl)ethynyl)-4-methyl-N-(1-methylcyclopropyl)-5-oxo-1,2,4,5-tetrahydroimidazo[1,2-a]quinazoline-7-sulfonamide] | < 0.1
5 | Cc1ncc([C@@H]2CN=C3N(Cc4cnn(C)c4)C(=O)c4cc(S(=O)(=O)NC5(C)CC5)ccc4N32)s1 [Example 121, (S)-4-((1-methyl-1H-pyrazol-4-yl)methyl)-N-(1-methylcyclopropyl)-1-(2-methylthiazol-5-yl)-5-oxo-1,2,4,5-tetrahydroimidazo[1,2-a]quinazoline-7-sulfonamide] | < 0.1
6 | CCC[C@@H]1CN=C2N(Cc3cnn(C)c3)C(=O)c3cc(S(=O)(=O)NC4(C)CC4)ccc3N21 [Example 122, (R)-4-((1-methyl-1H-pyrazol-4-yl)methyl)-N-(1-methylcyclopropyl)-5-oxo-1-propyl-1,2,4,5-tetrahydroimidazo[1,2-a]quinazoline-7-sulfonamide] | < 0.1
7 | C[C@@H]1CN=C2N(C)C(=O)c3cc(S(=O)(=O)NC4(C)CC4)cc(N4CCC5(CC4)COC5)c3N21 [Example 123, (R)-1,4-dimethyl-N-(1-methylcyclopropyl)-5-oxo-9-(2-oxa-7-azaspiro[3.5]nonan-7-yl)-1,2,4,5-tetrahydroimidazo[1,2-a]quinazoline-7-sulfonamide] | < 0.1
8 | Cn1cc(CN2C(=O)c3cc(S(=O)(=O)NC4(C)CC4)ccc3N3C2=NC[C@H]3C#CC2(N)CC2)cn1 [Example 124, (R)-1-((1-aminocyclopropyl)ethynyl)-4-((1-methyl-1H-pyrazol-4-yl)methyl)-N-(1-methylcyclopropyl)-5-oxo-1,2,4,5-tetrahydroimidazo[1,2-a]quinazoline-7-sulfonamide] | < 0.1
9 | COC1(C(=O)N2CCN(c3cc(S(=O)(=O)NC4(C)CC4)cc4c3N3C(=NC[C@H]3C)N(C)C4=O)CC2)CC1 [Example 125, (R)-9-(4-(1-methoxycyclopropane-1-carbonyl)piperazin-1-yl)-1,4-dimethyl-N-(1-methylcyclopropyl)-5-oxo-1,2,4,5-tetrahydroimidazo[1,2-a]quinazoline-7-sulfonamide] | < 0.1
10 | C[C@@H]1CN(c2cc(S(=O)(=O)NC3(C)CC3)cc3c2N2C(=NC[C@H]2C)N(C)C3=O)C[C@@H](C)O1 [Example 126, (R)-9-((2R,6R)-2,6-dimethylmorpholino)-1,4-dimethyl-N-(1-methylcyclopropyl)-5-oxo-1,2,4,5-tetrahydroimidazo[1,2-a]quinazoline-7-sulfonamide] | 0.1 to 1
11 | CNC1(C#C[C@@H]2CN=C3N(Cc4cnn(C)c4)C(=O)c4cc(S(=O)(=O)NC5(C)CC5)ccc4N32)CC1 [Example 127, (R)-4-((1-methyl-1H-pyrazol-4-yl)methyl)-1-((1-(methylamino)cyclopropyl)ethynyl)-N-(1-methylcyclopropyl)-5-oxo-1,2,4,5-tetrahydroimidazo[1,2-a]quinazoline-7-sulfonamide] | < 0.1
12 | Cn1cc(CN2C(=O)c3cc(S(=O)(=O)NC4(C)CC4)ccc3N3C2=NC[C@H]3CCC#N)cn1 [Example 128, (R)-1-(2-cyanoethyl)-4-((1-methyl-1H-pyrazol-4-yl)methyl)-N-(1-methylcyclopropyl)-5-oxo-1,2,4,5-tetrahydroimidazo[1,2-a]quinazoline-7-sulfonamide] | 0.1 to 1

Second part, the molecule after the results:

Row | IC50 [µM] | SMILES
13 | < 0.1 | CN1C(=O)c2cc(S(=O)(=O)NC3(C)CC3)ccc2N2C1=NC[C@H]2C#CC1(N(C)C)CC1 [Example 129, (R)-1-((1-(dimethylamino)cyclopropyl)ethynyl)-4-methyl-N-(1-methylcyclopropyl)-5-oxo-1,2,4,5-tetrahydroimidazo[1,2-a]quinazoline-7-sulfonamide]
14 | < 0.1 | CN1C(=O)c2cc(S(=O)(=O)NC3(C)CC3)ccc2N2C1=NC[C@H]2C#Cc1cnn(C)c1 [Example 130, (R)-4-methyl-1-((1-methyl-1H-pyrazol-4-yl)ethynyl)-N-(1-methylcyclopropyl)-5-oxo-1,2,4,5-tetrahydroimidazo[1,2-a]quinazoline-7-sulfonamide]
15 | 1 to 10 | [2H]C([2H])(c1cnn(C)c1)N1C(=O)c2cc(S(=O)(=O)NC3(C)CC3)ccc2N2C1=NCC2CNc1ccccn1 (centres unmarked) [Example 131, 4-((1-methyl-1H-pyrazol-4-yl)methyl-d2)-N-(1-methylcyclopropyl)-5-oxo-1-((pyridin-2-ylamino)methyl)-1,2,4,5-tetrahydroimidazo[1,2-a]quinazoline-7-sulfonamide]
16 | 0.1 to 1 | Cn1cc(CN2C(=O)c3cc(S(=O)(=O)NC4(C)CC4)ccc3N3C2=NCC3C#Cc2ccncn2)cn1 (centres unmarked) [Example 132, 4-((1-methyl-1H-pyrazol-4-yl)methyl)-N-(1-methylcyclopropyl)-5-oxo-1-(pyrimidin-4-ylethynyl)-1,2,4,5-tetrahydroimidazo[1,2-a]quinazoline-7-sulfonamide]
17 | < 0.1 | CN1C(=O)c2cc(S(=O)(=O)NC3(C)CC3)ccc2N2C1=NCC2C#Cc1ccc2cnn(C)c2c1 (centres unmarked) [Example 133, 4-methyl-1-((1-methyl-1H-indazol-6-yl)ethynyl)-N-(1-methylcyclopropyl)-5-oxo-1,2,4,5-tetrahydroimidazo[1,2-a]quinazoline-7-sulfonamide]
18 | < 0.1 | CN1C(=O)c2cc(S(=O)(=O)NC3(C)CC3)ccc2N2C1=NCC2C#Cc1cncc(C#N)c1 (centres unmarked) [Example 134, 1-((5-cyanopyridin-3-yl)ethynyl)-4-methyl-N-(1-methylcyclopropyl)-5-oxo-1,2,4,5-tetrahydroimidazo[1,2-a]quinazoline-7-sulfonamide]
19 | 0.1 to 1 | Cn1cc(CN2C(=O)c3cc(S(=O)(=O)NC4(C)CC4)ccc3N3C2=NCC3COc2ccc(C#N)cc2)cn1 (centres unmarked) [Example 135, 1-((4-cyanophenoxy)methyl)-4-((1-methyl-1H-pyrazol-4-yl)methyl)-N-(1-methylcyclopropyl)-5-oxo-1,2,4,5-tetrahydroimidazo[1,2-a]quinazoline-7-sulfonamide]
20 | < 0.1 | Cn1cc(CN2C(=O)c3cc(S(=O)(=O)NC4(C)CC4)ccc3N3C2=NCC3COc2cccc(C#N)c2)cn1 (centres unmarked) [Example 136, 1-((3-cyanophenoxy)methyl)-4-((1-methyl-1H-pyrazol-4-yl)methyl)-N-(1-methylcyclopropyl)-5-oxo-1,2,4,5-tetrahydroimidazo[1,2-a]quinazoline-7-sulfonamide]
21 | 0.1 to 1 | Cn1cc(CN2C(=O)c3cc(S(=O)(=O)NC4(C)CC4)ccc3N3C2=NCC3COc2ccccc2C#N)cn1 (centres unmarked) [Example 137, 1-((2-cyanophenoxy)methyl)-4-((1-methyl-1H-pyrazol-4-yl)methyl)-N-(1-methylcyclopropyl)-5-oxo-1,2,4,5-tetrahydroimidazo[1,2-a]quinazoline-7-sulfonamide]
22 | 0.1 to 1 | Cn1cc(CN2C(=O)c3cc(S(=O)(=O)NC4(C)CC4)ccc3N3C2=NCC3COc2cccc(Cl)c2)cn1 (centres unmarked) [Example 138, 1-((3-chlorophenoxy)methyl)-4-((1-methyl-1H-pyrazol-4-yl)methyl)-N-(1-methylcyclopropyl)-5-oxo-1,2,4,5-tetrahydroimidazo[1,2-a]quinazoline-7-sulfonamide]
23 | 0.1 to 1 | C[C@@H]1CN=C2N(CC(F)F)C(=O)c3cc(S(=O)(=O)NC4(C)CC4)ccc3N21 [Example 139, (R)-4-(2,2-difluoroethyl)-1-methyl-N-(1-methylcyclopropyl)-5-oxo-1,2,4,5-tetrahydroimidazo[1,2-a]quinazoline-7-sulfonamide]
24 | < 0.1 | Cn1cc(CN2C(=O)c3cc(S(=O)(=O)NC4(C)CC4)ccc3N3C2=NC[C@H]3C#Cc2cnn(C)n2)cn1 [Example 140, (R)-4-((1-methyl-1H-pyrazol-4-yl)methyl)-1-((2-methyl-2H-1,2,3-triazol-4-yl)ethynyl)-N-(1-methylcyclopropyl)-5-oxo-1,2,4,5-tetrahydroimidazo[1,2-a]quinazoline-7-sulfonamide]
25 | 0.1 to 1 | Cn1cc(CN2C(=O)c3cc(S(=O)(=O)NC4(C)CC4)ccc3N3C2=NC[C@H]3COc2ccn(C)n2)cn1 [Example 141, (S)-1-(((1-methyl-1H-pyrazol-3-yl)oxy)methyl)-4-((1-methyl-1H-pyrazol-4-yl)methyl)-N-(1-methylcyclopropyl)-5-oxo-1,2,4,5-tetrahydroimidazo[1,2-a]quinazoline-7-sulfonamide]
26 | < 0.1 | CN1C(=O)c2cc(S(=O)(=O)NC3(C)CC3)ccc2N2C1=NC[C@H]2C#Cc1ccc2nn(C)cc2c1 [Example 142, (R)-4-methyl-1-((2-methyl-2H-indazol-5-yl)ethynyl)-N-(1-methylcyclopropyl)-5-oxo-1,2,4,5-tetrahydroimidazo[1,2-a]quinazoline-7-sulfonamide]
